Assay results reported in patent US20020155381A1, “Optical data carrier comprising a light-absorbent compound having a plurality of chromophoric centres in the information layer” (priority 2001, published 2002).

Experiments:
Format in all cases: physicochemical
[1] = Solubility in coating solvent
[2] = Spin coating on fused silica support: film quality and film thickness from transmission and reflection spectra; conditions: for kind of film obtained by spin coating: 1-2 parts of solid per 100 in TFP or THF; for film thickness: spin coated from 1 part of solid to 99 parts of TFP, before vacuum
Method: A 1/1 mixture (by mass) of substances of the following formulae was dissolved in tetrafluoropropanol (TFP) in a mass ratio of 2 parts of solid to 98 parts of TFP. […] Evaluation of the transmission and reflection spectra indicated a film thickness of 165 nm. [drawing 62]
(§1) Determination of the complex index of refraction and the thickness of the layer of the organic substances by means of transmission and reflection spectra:
(§2) The transmission and reflection spectra of the layer systems film/fused silica or SiN/film/fused silica or SiN/fused silica were determined with perpendicular incidence of a parallel beam of light in a wavelength range of from 200 nm to 1 700 nm. […] The reflected light was detected at an angle of 172° relative to the direction of incidence. Two different thicknesses of the organic film were in each case produced by spin coating. The thickness of the layer was adjusted by means of the solution concentration. The thicknesses were in the range from 50 nm to 500 nm. To evaluate the transmission and reflection spectra, the known Fresnel formulae were employed and the interferences caused by multiple reflection in the layer system were taken into account. A simultaneous least squares fit of the measured transmission and reflection spectra to the calculated spectra of the two layer systems of differing thickness enabled the layer thicknesses and the complex index of refraction of the organic substance to be determined at each wavelength. For this purpose, the index of refraction of the fused silica support has to be known. The index of refraction curve of the fused silica substrate in this spectral range was determined independently on an uncoated substrate.

[3] = Vacuum treatment of the spin-coated film (simulated sputtering conditions), layer thickness afterwards; conditions: vacuum ~10^-6 mbar, 1 hour, room temperature
Method: This film was subjected to a vacuum (pressure ˜10^−6 mbar) for 1 hour at room temperature to simulate the conditions when applying metallic or dielectric layers by sputtering during the production of optical data carriers.
as §1, §2

[4] = SiN vapour deposition on the organic film, apparent thickness of the organic film
Method: A layer of SiN was subsequently applied by vapour deposition on top of the layer which had been pretreated in the above-described manner. Vapour deposition was carried out by electric heating of Si3N4 in a molybdenum boat under reduced pressure. The pressure during the vapour deposition process was ˜10^−4 mbar, and the deposition rate was ˜4-5 Angström per second. To determine the complex index of refraction of the deposited SiN layer, control experiments were carried out on plain fused silica plates. The thickness of the SiN layer was determined by means of a profiler (Tencor Alpha Step 500 Surface Profiler). In turn, evaluation of the transmission and reflection spectra of the layer system taking into account the complex index of refraction and the thickness of the SiN layer enabled the apparent thickness of the organic film to be determined. It was 94 nm. […]
The transmission and reflection spectra of the layer systems film/fused silica or SiN/film/fused silica or SiN/fused silica were determined with perpendicular incidence of a parallel beam of light in a wavelength range of from 200 nm to 1 700 nm. […] The reflected light was detected at an angle of 172° relative to the direction of incidence. […] The index of refraction curve of the fused silica substrate in this spectral range was determined independently on an uncoated substrate.

CN(CCC#N)c1ccc(/C=C/C2=[N+](CCCC[N+]3=C(/C=C/c4ccc(N(C)CCC#N)cc4)C(C)(C)c4ccccc43)c3ccccc3C2(C)C)cc1 [Example 13]
solubility ([1]; in TFP (tetrafluoropropanol)): 2%

CN(CCOC(=O)CCC(=O)OCCN(C)c1ccc(C(C#N)=C(C#N)C#N)cc1)c1ccc(C(C#N)=C(C#N)C#N)cc1 [Example 5]
solubility ([1]; in TFP (tetrafluoropropanol)): 1%

CCCOC(=O)/C(C#N)=C/c1ccc(C)o1 [Example IV, reference compound]
kind of film obtained by spin coating [2]: crystalline film

CC1(C)CC(=O)C(=Cc2ccc(N3CCN(c4ccc(C=C5C(=O)CC(C)(C)CC5=O)o4)CC3)o2)C(=O)C1 [Example 10]
solubility ([1]; in TFP (tetrafluoropropanol)): 2%

COc1cc2c(cc1OC)C(C)(C)C/C2=C(/C#N)C(=O)OCCOC(=O)/C(C#N)=C1\CC(C)(C)c2cc(OC)c(OC)cc21 [Example II]
kind of film obtained by spin coating [2]: transparent film | film thickness [2]: 85 nm | retention of the substance after vacuum treatment [3]: fully retained | total thickness d of the layer after vacuum treatment [3]: 85 nm

Cc1ccc(/C=C(\C#N)C(=O)OCC(C)(COC(=O)/C(C#N)=C/c2ccc(C)o2)COC(=O)/C(C#N)=C/c2ccc(C)o2)o1 [Example V]
change of the layer by the SiN vapour deposition process ([4]; SiN deposited at ~10^-4 mbar on vacuum-pretreated layer): the layer has not been changed | apparent thickness of the organic film after SiN vapour deposition ([4]; SiN deposited at ~10^-4 mbar, ~4-5 Angström per second, on vacuum-pretreated layer): 160 nm | kind of film obtained by spin coating [2]: transparent film | film thickness [2]: 153 nm | retention of the substance after vacuum treatment [3]: virtually fully retained | total thickness d of the layer after vacuum treatment [3]: 143 nm

CCN(CC)c1ccc(/C=C/c2cc[n+](Cc3ccccc3C[n+]3ccc(/C=C/c4ccc(N(CC)CC)cc4)cc3)cc2)cc1 [Example 12]
solubility ([1]; in TFP (tetrafluoropropanol)): 2%

N#C/C(=C\c1cccn1CCCn1cccc1/C=C(\C#N)c1ccccc1)c1ccccc1 [Example 9]
solubility ([1]; in diacetone alcohol): 2%
